Source: US20240261283A1, “PHARMACEUTICAL PREPARATION FOR PREVENTING OR TREATING PULMONARY FIBROSIS” (J2H BIOTECH INC., priority 2021, published 2024)

Tests used:
[1] = system: pulmonary fibrosis mouse model induced by radiation; assay: Radiation-induced pulmonary fibrosis mouse model, collagen deposition by Masson's trichrome staining of lung tissue; assay type: in vivo, C57BL/6 mice; conditions: radiation 90 Gy to chest; oral, twice a day, 14 days; nintedanib 30 mg/kg (G2), Chemical Formula 1 compound 10 mg/kg (G3), combination 10 + 30 mg/kg (G4); compared to vehicle group (G1)
Description: The test compound was administered orally to C57BL/6 male 8-week-old mice, and 1 hour later, radiation (90 Gy, 4 mm collimator) was irradiated to the chest at a size of 3 mm. Afterwards, test compounds were administered orally twice a day for 14 days, and then an autopsy was performed. Mouse lung tissue was fixed with 10% formalin, paraffin sections were made, and the degree of collagen deposition within the tissue was confirmed using trichrome staining.
According to Reference Example 1, test compounds were administered to a mouse model of radiation-induced pulmonary fibrosis and an autopsy was performed. Mouse lung tissue was fixed in 10% neutral formalin for one day and paraffin sections were made. To remove paraffin around the tissue, it was sequentially reacted in xylene, 95, 90, and 70% ethanol solutions for 5 minutes each. To activate the tissue antigen, the tissue was immersed in a 0.1 M citric acid (pH 6.0) solution and boiled for 20 minutes. Then, it was sequentially reacted with Bouin's solution for 1 minute, Weigert's hematoxylin for 10 minutes, Phosphotunstic/phosphomolydic acid for 10 minutes, aniline blue for 5 minutes, and 1% acetic acid for 1 minute. Next, after a dehydration process, it was sealed with a cover glass and observed under a microscope (Carl Zeiss Vision).

[2] = system: bleomycin-induced pulmonary fibrosis mouse model; assay: Bleomycin-induced pulmonary fibrosis mouse model, hydroxyproline in lung tissue lysate by ELISA; assay type: in vivo, C57BL/6N mice; conditions: oral, twice a day, 14 days
Description: C57BL/6N mice were anesthetized using isoflurane. Afterwards, an incision was made in the center of the neck to expose the airway. Bleomycin dissolved in physiological saline injection solution was slowly injected at 1.25 mg/kg into the exposed upper respiratory tract using an insulin syringe. Afterwards, the insulin syringe was removed and the incision was sutured. Afterwards, test compounds were administered orally twice a day for 14 days, and then an autopsy was performed. The mouse's left lung tissue was fixed with 10% formalin, paraffin sections were made, and the degree of lung fibrosis was evaluated using H&E staining. The right lung was tissue lysed for qPCR and hydroxyproline measurements. Afterwards, it was used in each experiment to evaluate the expression of lung fibrosis-related genes and the degree of collagen deposition in the lung.
According to Reference Example 2, test compounds were administered to a mouse model of bleomycin-induced pulmonary fibrosis and an autopsy was performed. The left lung tissue of the mouse was fixed in 10% neutral formalin for one day and paraffin sections were made. To remove paraffin around the tissue, it was sequentially reacted in xylene, 95, 90, and 70% ethanol solutions for 5 minutes each. […] The other half of the tissue was lysed and the lysate was analyzed using a hydroxyproline ELISA kit.

## COC(=O)c1ccc2c(c1)NC(=O)/C2=C(\Nc1ccc(N(C)C(=O)CN2CCN(C)CC2)cc1)c1ccccc1 [nintedanib]
[1]
  anti-fibrotic effect of suppressing collagen deposition (trichrome staining, FIGS. 1 and 2): high significance
[2]; bleomycin 1.25 mg/kg, Chemical Formula 1 compound 30, 100, 200 mg/kg (G3-G5), combination 60 + 30 mg/kg (G6), nintedanib 60 mg/kg (G7), compared to vehicle group (G2)
  expression of hydroxyproline in lung tissue (FIG. 5): significant differences were confirmed in all administration groups except the nintedanib single administration group (G7)

## C[C@@H]1CN(c2ccc(S(C)(=O)=O)cc2F)CCN1c1nccc(C(=O)N[C@H]2C3CC4CC2C[C@](O)(C4)C3)n1 [compound of Chemical Formula 1, 2-((R)-4-(2-fluoro-4-(methylsulfonyl)phenyl)-2-methylpiperazin-1-yl)-N-((1R,2s,3S,5S,7S)-5-hydroxyadamantan-2-yl)pyrimidine-4-carboxamide]
[1]
  anti-fibrotic effect of suppressing collagen deposition (trichrome staining, FIGS. 1 and 2): significantly inhibits collagen deposition
[2]; bleomycin-induced model, doses as in Table 2
  collagen deposition, primary evaluation index of pulmonary fibrosis (conclusion of Example 2): significantly inhibits collagen deposition
